The values that follow come from ChEMBL document CHEMBL2034957, “Synthesis and antitumor evaluation of novel benzo[d]pyrrolo[2,1-b]thiazole derivatives” (Eur J Med Chem, 2012).

Series [1] deals with MX1. The series can be described thus: Antitumor activity against human MX1 cells xenografted in athymic nude mouse assessed as tumor remission at 20 mg/kg, iv administered q2d for 3 days followed by 25 mg/kg, iv q2d for 4 days measured on day 26 post-tumor implantation. The series is classed as functional, organism-based. For orientation: Xenograft models place foreign cells or tissue in a host animal.

Series [2] can be described thus: Cell cycle arrest in human H1299 cells assessed as G2/M phase cells at 4.5 to 9 uM after 24 hrs by propidium iodidee-based flow cytometry. The series is classed as functional. As to conditions: NCI-H1299. In general terms: Flow cytometry measures light scatter and fluorescence of single cells or particles in a stream.
Series [3] in a line: Cytotoxicity against human OECM1 cells after 72 hrs by alamar blue assay. The series is classed as functional, cell-based. As to conditions: OECM1, 72 h. On the technique in general: Alamar Blue is a resazurin reagent that responds to reducing activity.
Series [4] has as its system PC-3. The experiment in a line: Cytotoxicity against human PC3 cells after 72 hrs by alamar blue assay. It is filed as functional, cell-based. As to conditions: PC-3, 72 h.
A short description of series [5]: Toxicity in iv dosed athymic nude mouse assessed as mortality. The series is classed as organism-based. As to conditions: in vivo.
For series [6], the system named is Nucleic Acid. The experiment in a line: Induction of Escherichia coli pEGFP-N1 DNA interstrand cross-linking at 1 to 20 uM after 2 hrs using ethidium bromide staining by alkaline agarose gel shift assay. It is filed as nucleic-acid assay.
In series [7] the test system is CCRF-CEM. The series can be described thus: Cytotoxicity against human CCRF-CEM cells after 72 hrs by XTT assay. It is filed as functional, cell-based.
Series [8] is described as follows: Cell cycle arrest in human H1299 cells at 18 uM after 24 hrs by propidium iodidee-based flow cytometry. The series is classed as functional. The following applies: NCI-H1299.
Series [9] in a line: Cytotoxicity against human H1299 cells after 72 hrs by alamar blue assay. The series is classed as functional, cell-based. The following applies: NCI-H1299, 72 h.
The test system of series [10] is Mus musculus. The series can be described thus: Toxicity in athymic nude mouse assessed as weight loss at 20 mg/kg, iv administered q2d for 3 days followed by 25 mg/kg, iv q2d for 5 days. The series is classed as organism-based. As to conditions: in vivo.
Series [11] relates to MX1. The series can be described thus: Cytotoxicity against human MX1 cells after 72 hrs by SRB assay. It is filed as functional, cell-based. As to conditions: MX1, 72 h.
The test system of series [12] is CCRF-CEM. The experiment in a line: Cytotoxicity against human taxol-resistant CCRF-CEM cells after 72 hrs by XTT assay. The series is classed as functional, cell-based.
Series [13] concerns MX1. The series can be described thus: Antitumor activity against human MX1 cells xenografted in athymic nude mouse assessed as tumor remission at 20 mg/kg, iv administered q2d for 3 days followed by 25 mg/kg, iv q2d for 4 days measured on day 28 post-tumor implantation. The series is classed as functional, organism-based.
For series [14], the system named is MX1. The series can be described thus: Antitumor activity against human MX1 cells xenografted in athymic nude mouse assessed as tumor remission at 20 mg/kg, iv administered q2d for 3 days followed by 25 mg/kg, iv q2d for 5 days measured on day 26 post-tumor implantation. It is filed as functional, organism-based.
Series [15] concerns HCT-116. The experiment in a line: Cytotoxicity against human HCT116 cells after 72 hrs by SRB assay. It is filed as functional, cell-based. As to conditions: HCT-116, 72 h.
Series [16] in a line: Cell cycle arrest in human H1299 cells assessed as reduction in G2/M phase cells at 4.5 to 9 uM after 48 hrs by propidium iodidee-based flow cytometry. It is filed as functional. The following applies: NCI-H1299.
The nature of series [17]: Cell cycle arrest in human H1299 cells at 18 uM after 48 hrs by propidium iodidee-based flow cytometry. It is filed as functional. The following applies: NCI-H1299.
Series [18] deals with CCRF-CEM. The experiment in a line: Ratio of IC50 for human vinblastine-resistant CCRF-CEM cells to IC50 for human CCRF-CEM cells. It is filed as functional.
Series [19] in a line: Cell cycle arrest in human H1299 cells assessed as increase in sub-G1 phase cells at 4.5 to 9 uM after 24 hrs by propidium iodidee-based flow cytometry. The series is classed as functional. As to conditions: NCI-H1299.
Series [20] deals with CCRF-CEM. The experiment in a line: Cytotoxicity against human vinblastine-resistant CCRF-CEM cells after 72 hrs by XTT assay. It is filed as functional, cell-based.
Series [21] deals with CCRF-CEM. The series can be described thus: Ratio of IC50 for human taxol-resistant CCRF-CEM cells to IC50 for human CCRF-CEM cells. It is filed as functional.
Series [22] can be described thus: Cytotoxicity against human U87 cells after 72 hrs by alamar blue assay. It is filed as functional, cell-based, U-87MG ATCC. The following applies: U-87 MG.
The subject of series [23] is Mus musculus. The experiment in a line: Toxicity in athymic nude mouse assessed as weight loss at 10 mg/kg, iv administered q2d for 4 days. The series is classed as organism-based. On the set-up: dose 10 mg/kg, route intravenous. As to conditions: in vivo, 96 h.
Series [24] concerns MX1. The series can be described thus: Antitumor activity against human MX1 cells xenografted in athymic nude mouse assessed as tumor suppression at 30 mg/kg, iv administered q2d for 4 days. It is filed as functional.
A short description of series [25]: Cell cycle arrest in human H1299 cells assessed as reduction in G1 phase cells after 24 to 48 hrs by propidium iodidee-based flow cytometry. As to conditions: NCI-H1299. It is filed as functional.
A short description of series [26]: Cell cycle arrest in human H1299 cells assessed as accumulation of G2/M phase cells after 24 to 48 hrs by propidium iodidee-based flow cytometry. It is filed as functional. As to conditions: NCI-H1299.
The test system of series [27] is Mus musculus. The series can be described thus: Toxicity in athymic nude mouse assessed as weight loss at 30 mg/kg, iv administered q2d for 4 days. The series is classed as organism-based. On the set-up: dose 30 mg/kg, route intravenous. As to conditions: in vivo, 96 h.
For series [28], the system named is Mus musculus. The experiment in a line: Toxicity in athymic nude mouse assessed as weight loss at 20 mg/kg, iv administered q2d for 3 days followed by 25 mg/kg, iv q2d for 4 days. The following applies: in vivo. The series is classed as organism-based.
Series [29] is described as follows: Cell cycle arrest in human H1299 cells assessed as accumulation of sub-G1 phase cells after 24 to 48 hrs by propidium iodidee-based flow cytometry. The series is classed as functional. The following applies: NCI-H1299.
Series [30] concerns MX1. The series can be described thus: Antitumor activity against human MX1 cells xenografted in athymic nude mouse assessed as tumor suppression at 10 mg/kg, iv administered q2d for 4 days. The series is classed as functional.

The source made the active and inactive calls. No cut-off for these calls is given here.

Turning to `CC(C)NC(=O)OCc1c(COC(=O)NC(C)C)c2sc3ccccc3n2c1-c1ccc(Cl)cc1`, the result in series [1], in series [2], in series [6], in [8], in series [13] and in [14] was Active. Further, the outcome in series [16] and in series [19] was Active. The IC50 – broadly, the concentration that inhibits the measured activity by half – turned out to be 7540 nM in series [3]; 13700 nM in series [4]; 80 nM in series [7]; 8750 nM in [9]; 1190 nM in series [11]; 390 nM in series [12]. In addition, the IC50 came out at 1700 nM in [15], 420 nM in series [20] and 29000 nM in series [22]. For the same compound, the MTD in series [5] was 20 mg/kg. Also, the Activity in [10] turned out to be 10%. For the same compound, in [17], the outcome was inactive. The “Ratio IC50” value in series [18] came out at 5.25; in series [21], 4.87.
For the compound `CCNC(=O)OCc1c(COC(=O)NCC)c2sc3ccccc3n2c1-c1ccc(Cl)cc1`, the Activity was 20% in [23]; more than 99% in series [24]; “Dose-dependent effect” in series [25]; 20% in series [27]; 20% in series [28]. The 50% inhibitory concentration (IC50) in series [3] was determined as 11600 nM; in series [4] it was 13800 nM; in series [7], 210 nM; in series [9] it was 4330 nM; in series [11], 910 nM; in [12], 320 nM. The values for the IC50 in [15], in [20] and in [22] were 700 nM, 390 nM and 26000 nM, respectively. Also, the result in series [6], in series [26] and in series [29] was Active. For the same compound, the “Ratio IC50” value is recorded as 1.85 in series [18] and 1.52 in [21].
With `CCNC(=O)OCc1c(COC(=O)NCC)c2sc3ccccc3n2c1-c1ccc(F)cc1`, the Activity in [23] is given as 20%; in [30] it was more than 99%; in series [27] it was 20%; in series [28] it was 20%. Further, the IC50 turned out to be 11500 nM in series [3]; 23700 nM in [4]; 70 nM in [7]; 13600 nM in series [9]; 480 nM in series [11]; 380 nM in series [12]. For the same compound, the IC50 stood at 520 nM in series [15], 450 nM in series [20] and 29200 nM in [22]. In addition, the result in series [6] was Active. The entries for the “Ratio IC50” value in series [18] and in series [21] were 6.42 and 5.42, respectively.
